Laboratory results from US20230123585A1, “COMPOSITIONS AND METHODS FOR TREATING OR PREVENTING CANCER USING DEUBIQUITINASE INHIBITORS” (The University of Chicago, priority 2020, published 2023).

Legend:
[1] = tested on: A375 and HCT116 cells; assay: Cell viability by SRB assay of A375 and HCT116 cells treated with Ezh2 inhibitors without or with EOAI; format: cell-based; settings: 48 hr; A375: GSK343 10 μM, UNC1999 5 μM, 0.5 μM EOAI; HCT116: GSK343 10 μM, UNC1999 10 μM, 1 μM EOAI
Experimental: FIGS. 20A-20B: (A) A375 cells were treated with GSK343 10 μM, UNC1999 5μM without or with 0.5 μM EOAI3402143 (EOAI) for 48 hr before measuring cell viability by SRB assay. Data are presented as relative to the R-WT cells without drug treatment (n=3 per group, data represent mean±SEM). (B) HCT116 cells were treated with GSK343 10 μM, UNC1999 10 μM without or with 1 μM EOAI3402143 (EOAI) for 48 hr before measuring cell viability by SRB assay. Data are presented as relative to the R-WT cells without drug treatment (n=3 per group, data represent mean±SEM).
Cell Proliferation Assay. Cells were seeded in 96-well plates. The cell proliferation was assessed by SRB assay (Vichai and Kirtikara, 2006) at various time points. Briefly, cells after treatments were fixed with 10% TCA then stained with 0.05% SRB. After wash, bound SRB was solubilized with 10 mM Trizma base and measured at 515 nm.

[2] = tested on: ubiquitination of METTL3; assay: Ubiquitination of METTL3 in A375 cells transfected with HA-ubiquitin (IP anti-METTL3, immunoblot anti-HA); format: cell-based, human; settings: 10 μM MG-132 and 10 μM EOAI3402143 or 30 μM vialinin A for 8 h
Experimental: (§1) FIGS. 11A-11G: USP5 is Required for ERK-Mediated METTL3 Stabilization. (A) A375 cells transfected with HA-ubiquitin (ub) were treated with 10 μM MG-132 and MEK inhibitor PD0325901 for 8 h. The ubiquitination of METTL3 was detected by IP with anti-METTL3 and immunoblot with anti-HA. (B) After 8 h treatment with 10 μM PD0325901 with or without 10 μM MG-132, cell lysates from A375 cells were analyzed by immunoblot. (C) A375 cells were treated with various concentrations of PD0325901 for 1 h. Cell lysates were subjected to IP with METTL3 antibody followed by immunoblot. (D) 293T cells transfected as indicated were subjected to IP/immunoblot analysis. (E) Immunofluorescence analysis of myc-METTL3 (green) in mESC stable transfectants. DAPI (blue) was used to mark the nucleus. (F) Lysates of 293T cells transfected as indicated were subjected to IP with anti-Flag antibody followed by immunoblot. (G) Immunofluorescence analysis of 293T cells co-transfected with myc-METTL3 (green), Flag-USP5 (red) with or without constitutively active B-RAF.
FIGS. 14A-14I: Phosphorylation of the m^6A Methyltransferase Complex May Affect Tumorigenesis. […] (B) LC-MS/MS quantification of the m^6A/A ratio in mRNA of melanoma cell lines. (C) After 8 h treatment with 10 μM PD0325901 or 0.1 μM tramentib, cell lysates from HCT-116 cells were analyzed by immunoblot. […] The ubiquitination of METTL3 was detected by IP with anti-METTL3 and immunoblot with anti-HA. (F) After 8 hr treatment with 10 μM EOAI3402143 (EOAI) or 30 μM vialinin A, cell lysates from HCT-116 cells were analyzed by immunoblot. […] (I) LC-MS/MS quantification of the m^6A/A ratio in mRNA of breast cancer cell lines.
Immunoprecipitation, immunoblotting, and in vitro kinase assay. […] Primary antibodies were detected by HRP-linked secondary antibodies (Cell Signaling) together with SuperSignal West Pico Plus chemiluminescent substrate (Thermo Scientific) and imaged in a FluorChem R system (ProteinSimple).

[3] = tested on: METTL3 / m^6A methyltransferase complex in A375 cells; assay: Immunoblot of METTL3 / m^6A methyltransferase complex protein in A375 cell lysates; format: cell-based, human; settings: A375 cells (also HCT-116, FIG. 14F), 8 hr, 10 μM EOAI3402143 or 30 μM vialinin A
Experimental: (§2) FIGS. 6A-6H: Phosphorylation of the m^6A Methyltransferase Complex May Affect Tumorigenesis. (A) Lysates of A375 stable transfectants harvested at different time points after treatment with cycloheximide (CHX) 10 μg/ml were analyzed by immunoblot. (B) LC-MS/MS quantification of the m^6A/A ratio in mRNA of A375 stable transfectants. (C) After 8 h treatment with 10 μM PD0325901 or 0.1 μM tramentib, cell lysates from A375 cells were analyzed by immunoblot. (D) LC-MS/MS quantification of the m^6A/A ratio in mRNA of A375 cells treated with 10 μM PD0325901 or 0.1 μM tramentib for 48 h. (E) After 8hr treatment with 10 μM EOAI3402143 (EOAI) or 30 μM vialinin A , cell lysates from A375 cells were analyzed by immunoblot. (F) A375 stable transfectants as indicated were treated with 3 μM EOAI3402143 (EOAI) or 10 μM vialinin A before measuring cell viability by SRB assay. Data are presented as relative to the R-WT cells without drug treatment (n=3 per group, data represent mean±SEM). (G) Immunofluorescence analysis of METTL3 (green) in SKBR3 cells treated with 1 μM tucatinib and 1 μM lapatinib for 8 hr. DAPI (blue) was used to mark the nucleus. (H) LC-MS/MS quantification of the m^6A/A ratio in mRNA of SKBR3 and BT474 cells treated with 1 μM tucatinib and 1 μM lapatinib for 48 h. (See also FIG. 14.)
as §1
Immunoprecipitation, immunoblotting, and in vitro kinase assay. Immunoprecipitation (IP) and immunoblotting (IB) were performed as previously described (Sun et al., 2016). In brief, protein samples were isolated from respective cells by lysis in RIPA buffer (1% Triton X-100, 150 mM NaCl, 20 mM Na2PO4, pH 7.4) containing Halt Protease and Phosphatase Inhibitor Cocktail (Thermo Scientific). Subsequently, a BCA assay (Thermo Scientific) was used to determine the protein concentrations. For IP, indicated antibody and protein A/G magnetic beads (Thermo Scientific) were incubated with lysate at 4° C. overnight followed by washing and elution with sample buffer. Equal amounts of protein were separated by SDS-PAGE followed by wet transfer to PVDF membranes. Blots were blocked with 5% non-fat milk or BSA and incubated with respective primary antibody at 4° C. overnight. Primary antibodies were detected by HRP-linked secondary antibodies (Cell Signaling) together with SuperSignal West Pico Plus chemiluminescent substrate (Thermo Scientific) and imaged in a FluorChem R system (ProteinSimple).

[4] = tested on: A375 and HCT-116 stable transfectants; assay: Cell viability by SRB assay of A375 and HCT-116 stable transfectants treated with USP5 inhibitors; format: cell-based; settings: A375 1 μM, HCT-116 2 μM EOAI, 48 hr
Experimental: as §2, with “(F) A375 stable transfectants as indicated were treated with 3 μM EOAI3402143 (EOAI) or 10 μM vialinin A before measuring cell viability by SRB assay. Data are presented as relative to the R-WT cells without drug treatment (n=3 per group, data represent mean±SEM). (G) Immunofluorescence analysis of METTL3 (green) in SKBR3 cells treated with 1 μM tucatinib and 1 μM lapatinib for 8 hr. DAPI (blue) was used to mark the nucleus.” left out, “(See also FIG. 14.)” left out
FIGS. 14A-14I: Phosphorylation of the m^6A Methyltransferase Complex May Affect Tumorigenesis. […] (B) LC-MS/MS quantification of the m^6A/A ratio in mRNA of melanoma cell lines. (C) After 8 h treatment with 10 μM PD0325901 or 0.1 μM tramentib, cell lysates from HCT-116 cells were analyzed by immunoblot. […] The ubiquitination of METTL3 was detected by IP with anti-METTL3 and immunoblot with anti-HA. (F) After 8 hr treatment with 10 μM EOAI3402143 (EOAI) or 30 μM vialinin A, cell lysates from HCT-116 cells were analyzed by immunoblot. […]

[5] = tested on: PDAC cell lines; assay: Inhibition rates of JQ1 in a panel of 9 PDAC cell lines; format: cell-based
From the text: (§3) FIGS. 15A-15D: The results of the inhibition rates of JQ1 in different PDAC cell lines. (B) The correlation analysis of gene expression of BRD family genes and METTL3 in PDAC from TGCA and GTEx database. (C) The polyA RNA m6A level changes upon JQ1 treatment compared to the DMSO control in different PDAC cell lines. (D) The cell viability changes with JQ1 treatment with a series concentrations in the JQ1-insensitive cells upon the knockdown of METTL3 and the JQ1-sensitive cells upon the overexpression of METTL3 compared to control.

[6] = tested on: polyA RNA m^6A in JQ1-sensitive cells (Mia cell); assay: polyA RNA m^6A level upon JQ1 treatment in JQ1-sensitive PDAC cells; format: cell-based
From the text: as §3, with “control. […]” for “control.”
(§4) LC-MS/MS quantification of m^6A in poly(A) RNA. mRNA was extracted from the total RNA using 2 rounds of the Dynabeads mRNA purification kit. […] The nucleosides were quantified by using the nucleoside-to-base ion mass transitions of 282 to 150 (m^6A) and 268 to 136 (A). Quantification was carried out by comparison with a standard curve obtained from pure nucleoside. The ratio of m^6A to A was calculated based on the calibrated concentrations (Liu et al., 2018).

[7] = tested on: polyA RNA m^6A in JQ1-insensitive cells (8902 cell line); assay: polyA RNA m^6A level upon JQ1 treatment in JQ1-insensitive PDAC cells; format: cell-based
From the text: as §3, with “control. […]” for “control.”
as §4

[8] = tested on: JQ1-insensitive PDAC cells; assay: Cell viability with JQ1 in JQ1-insensitive cells upon knockdown of METTL3; format: cell-based; settings: series of JQ1 concentrations
From the text: as §3

[9] = tested on: JQ1-sensitive PDAC cells; assay: Cell viability with JQ1 in JQ1-sensitive cells upon overexpression of METTL3; format: cell-based; settings: series of JQ1 concentrations
From the text: as §3

[10] = tested on: METTL3 in 8902 cell line; assay: METTL3 RNA and protein level changes with JQ1 treatment in JQ1-insensitive cells; format: cell-based; settings: 8902 cell line (JQ1-insensitive)
From the text: (§5) FIGS. 16A-16B: (A) The protein level changes of METTL3 with JQ1 treatment in the JQ1-insensitive cells compared to DMSO control (left); the RNA level changes of METTL3 the JQ1-insensitive cells with JQ1 treatment compared to DMSO control (mid); the polyA RNA m6A level changes in JQ1-insensitive cells among the knockdown control and DMSO control samples, the knockdown control and JQ1 treatment samples, the METTL3 knockdown and DMSO control, and the METTL3 knockdown and JQ1 treatment samples (right). (B) The protein level changes of METTL3 with JQ1 treatment in the JQ1-sensitive cells compared to DMSO control (left); the RNA level changes of METTL3 the JQ1-sensitive cells with JQ1 treatment compared to DMSO control (mid); the polyA RNA m6A level changes in JQ1-sensitive cells among the knockdown control and DMSO control samples, the knockdown control and JQ1 treatment samples, the METTL3 knockdown and DMSO control, and the METTL3 knockdown and JQ1 treatment samples (right).

[11] = tested on: METTL3 in Mia cell; assay: METTL3 RNA and protein level changes with JQ1 treatment in JQ1-sensitive cells; format: cell-based; settings: dose-dependent
From the text: as §5

CCCc1cc(C)[nH]c(=O)c1CNC(=O)c1cc(-c2ccc(N3CCN(C(C)C)CC3)nc2)cc2c1cnn2C(C)C [UNC199]
combination effect on cell viability with the USP5 inhibitor EOAI [1]: synergism

CCCC(NC(=O)/C(C#N)=C/c1nc(Cl)ccc1Cl)c1ccc(OCCN2CCOCC2)cc1 (centres unmarked) [EOAI3402143]
ubiquitination of METTL3 [2]: increased | METTL3 protein level [3]: decreased | effect of knockdown of METTL3 on sensitivity of cells to the USP5 inhibitor [4]: sensitized | effect of overexpression of METTL3 on sensitivity of cells to the USP5 inhibitor [4]: attenuated

CCCc1cc(C)[nH]c(=O)c1CNC(=O)c1cc(-c2ccnc(N3CCN(C)CC3)c2)cc2c1cnn2C(C)C [GSK343]
combination effect on cell viability with the USP5 inhibitor EOAI [1]: synergism

Cc1sc2c(c1C)C(c1ccc(Cl)cc1)=N[C@@H](CC(=O)OC(C)(C)C)c1nnc(C)n1-2 [JQ1]
inhibition effect (anticancer activity) [5]: varies among different cell types | polyA RNA m^6A ([6]; JQ1-sensitive PDAC cells, versus DMSO control): dramatically decreased | polyA RNA m^6A level ([6]; Mia cell (JQ1-sensitive), dose-dependent): dramatic decreases | polyA RNA m^6A, JQ1 treatment after METTL3 knockdown ([7]; 8902 cell line (JQ1-insensitive)): further reduced | polyA RNA m^6A changes ([7]; JQ1-insensitive PDAC cells, versus DMSO control): moderate to negligible | viability of JQ1-insensitive cells, knockdown of METTL3 together with JQ1 treatment [8]: synergistically reduce | effect of JQ1 treatment upon overexpression of METTL3 in JQ1-sensitive cell [9]: inhibits | METTL3 RNA level [10]: moderate effect | METTL3 protein level [10]: less of an effect | METTL3 RNA level [11]: dramatic decreases | METTL3 protein level [11]: dramatic decreases
